Our source for the AC50 values is patent US20260138961A1, “MODULATORS OF MITOCHONDRIAL DNA REPLICATION” (Pretzel Therapeutics, Inc., priority 2022, published 2026).

A value given as a limit tells only on which side of the number the result lay.

This assay has as its target T1, POLγA:A467T (Homo sapiens, UniProt P54098, A467T).
T1 sequence (P54098 1-1239 A467T): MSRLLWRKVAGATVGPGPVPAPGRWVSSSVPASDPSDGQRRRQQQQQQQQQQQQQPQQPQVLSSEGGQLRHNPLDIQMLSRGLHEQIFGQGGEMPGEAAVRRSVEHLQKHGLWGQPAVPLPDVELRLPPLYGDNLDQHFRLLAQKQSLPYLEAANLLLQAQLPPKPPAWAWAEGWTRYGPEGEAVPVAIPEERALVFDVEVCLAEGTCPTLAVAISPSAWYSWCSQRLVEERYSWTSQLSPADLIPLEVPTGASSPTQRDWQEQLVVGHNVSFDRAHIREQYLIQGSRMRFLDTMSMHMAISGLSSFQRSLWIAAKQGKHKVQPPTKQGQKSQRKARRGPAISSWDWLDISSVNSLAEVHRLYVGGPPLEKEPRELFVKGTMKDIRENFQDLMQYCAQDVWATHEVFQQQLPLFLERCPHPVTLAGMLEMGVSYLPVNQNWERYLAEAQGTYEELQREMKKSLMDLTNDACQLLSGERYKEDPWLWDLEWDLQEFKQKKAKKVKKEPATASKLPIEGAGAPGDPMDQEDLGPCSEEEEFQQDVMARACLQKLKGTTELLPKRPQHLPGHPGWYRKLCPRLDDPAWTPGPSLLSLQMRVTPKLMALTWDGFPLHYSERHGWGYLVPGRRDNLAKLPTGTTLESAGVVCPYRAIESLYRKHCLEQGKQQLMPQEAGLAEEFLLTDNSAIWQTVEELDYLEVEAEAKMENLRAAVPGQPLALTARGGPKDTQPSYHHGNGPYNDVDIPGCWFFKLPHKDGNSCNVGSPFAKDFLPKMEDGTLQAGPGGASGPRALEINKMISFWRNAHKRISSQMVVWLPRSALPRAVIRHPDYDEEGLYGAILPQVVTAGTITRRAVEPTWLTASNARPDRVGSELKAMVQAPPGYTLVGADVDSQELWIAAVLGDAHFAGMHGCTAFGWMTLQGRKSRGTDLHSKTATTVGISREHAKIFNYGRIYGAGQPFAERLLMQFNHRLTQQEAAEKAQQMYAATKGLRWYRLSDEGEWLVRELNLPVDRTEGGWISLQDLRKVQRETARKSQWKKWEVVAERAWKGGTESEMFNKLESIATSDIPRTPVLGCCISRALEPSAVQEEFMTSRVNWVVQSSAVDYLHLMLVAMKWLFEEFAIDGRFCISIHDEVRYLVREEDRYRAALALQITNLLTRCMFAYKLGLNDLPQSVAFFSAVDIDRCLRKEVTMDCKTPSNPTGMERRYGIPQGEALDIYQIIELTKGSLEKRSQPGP
T1 sequence (Q9UHN1 1-485 partner): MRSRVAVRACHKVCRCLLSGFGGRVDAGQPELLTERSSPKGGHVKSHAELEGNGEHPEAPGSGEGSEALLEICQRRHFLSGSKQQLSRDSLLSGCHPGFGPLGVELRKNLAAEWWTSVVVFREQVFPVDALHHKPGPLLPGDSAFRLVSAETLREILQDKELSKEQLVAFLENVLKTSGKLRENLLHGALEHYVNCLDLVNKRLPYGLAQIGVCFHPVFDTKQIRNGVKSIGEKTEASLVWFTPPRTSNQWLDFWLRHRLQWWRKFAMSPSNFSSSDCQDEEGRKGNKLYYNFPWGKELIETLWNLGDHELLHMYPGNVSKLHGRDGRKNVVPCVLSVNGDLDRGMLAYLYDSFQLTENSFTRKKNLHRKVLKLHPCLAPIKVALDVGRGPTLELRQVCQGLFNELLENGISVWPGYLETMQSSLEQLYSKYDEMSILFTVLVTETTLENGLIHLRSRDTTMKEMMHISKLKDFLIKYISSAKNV
Put plainly: DNA polymerization assay, POLγA:A467T mutant. To be noted: stimulation of polymerase activity, primed M13mp18 ssDNA, 37° C. 2 hours; read-out: A467T AC50. In kind it is biochemical.
As a reminder, the AC50 is the concentration at which the activity in the assay is half-maximal. `Cc1cc(S(=O)(=O)Nc2nc(-c3ccccc3)n(C)n2)c(C)cc1Cl` [Example 180, 4-chloro-2,5-dimethyl-N-(1-methyl-5-phenyl-1H-1,2,4-triazol-3-yl)benzenesulfonamide]: the AC50 is over 10 µM. As for `Cc1cc(S(=O)(=O)Nc2csc(-c3ccn(C)n3)n2)c(C)cc1Cl` [Example 181, 4-chloro-2,5-dimethyl-N-(2-(1-methyl-1H-pyrazol-3-yl)thiazol-4-yl)benzenesulfonamide], the AC50 is over 10 µM. As to `Cc1cc(S(=O)(=O)Nc2csc(-c3cnn(C)c3)n2)c(C)cc1Cl` [Example 183, 4-chloro-2,5-dimethyl-N-(2-(1-methyl-1H-pyrazol-4-yl)thiazol-4-yl)benzenesulfonamide], the AC50 turned out to be 6 µM.

On to `Cc1cc2cc(NS(=O)(=O)c3cc(C)c(Cl)cc3C)ccc2[nH]1` [Example 184, 4-chloro-2,5-dimethyl-N-(2-methyl-1H-indol-5-yl)benzenesulfonamide], for which the concentration at half-maximal activity (AC50) turned out to be 33 µM.
